System: β-lactamase (BlaZ) gene expression in S. aureus strain SHY97-4320
Assay: BlaZ gene expression, real-time quantitative RT-PCR, and total RNA
Assay type: cell-based, Staphylococcus aureus
Procedure: Fresh MHB containing or not 8 μg/ml of penicillin G and/or 1 mg/ml of bovine LF (2×2 factorial design) was adjusted to an optical density at 540 nm of 0.04 with an overnight culture of S. aureus and then incubated at 37° C. with agitation (150 rpm). After 4 and 22-h of incubation, aliquots were removed to determine bacterial growth by viable count (colony forming unit per ml, cfu/ml), measuring the culture turbidity (OD540nm) with a spectrophotometer Philips PU and to measure β-lactamase activity in bacterial cells. Following culture under the same condition, bacterial cells were collected for RNA extraction.
Total bacterial RNA was prepared using the RNeasy minikit (Qiagen, Mississauga, ON, Canada). Washed bacteria were first treated with 50 μg/ml of lysostaphin (GramCracker, Ambion, Austin, Tex.) for 10 min at 37° C. and RNA was purified according to the manufacturer's protocol. Contaminating DNA was removed from total RNA by using 1 U of Rnase-free Dnase I (Gibco Life Technologies, Grand Island, N.Y.) in a 10 μl reaction mixture containing approximately 50 ng of total RNA per μl and 20mM Tris-HCl (pH 8.4), 2 mM MgCl2 and 50 mM KCl. The reaction mixture was incubated for 15 min at room temperature, and the Dnase I was inactivated by adding 1 μl of 25 mM EDTA to the mixture and incubating for 10 min at 65° C. before assessing quantity and purity. Amount of cellular RNA was then determined by measuring the OD260 nm and OD280 nm.
Real-Time fluorescence-based 5′ nuclease PCR which is a widely accepted method for measuring gene expression levels was used to quantify β-lactamase BlaZ RNA by RT-PCR on ABI Prism™ 7700 (TaqMan® ) sequence detector (PE Applied Biosystem, Foster City, Calif.). The forward primer, reverse.primer, and TaqMan probe for Real-Time RT-PCR amplification were designed with the PrimerExpress software (PE Applied Biosystem) to specifically amplify the. S. aureus BLAZ gene. Briefly, RNA (50 ng) was added to a 50 μl reaction mixture containing 25 μl of 2×RT-PCR One-Step Universal Master Mix, 1.25 μl of 40×MultiScribe and Rnase Inhibitor Mix, 4.5 μl of the forward primer (10 μM, 5′-[…]-3′, SEQ ID NO:3), 4.5 μl of the reverse primer (10 μM, 5′-[…]-3′, SEQ ID NO:4), and 1.25 μl of TaqMan probe (10 μM, 6FAM-[…]-TAMRA, SEQ ID NO:5). Reverse transcription with the recombinant Moloney Murine Leukemia Virus (M-MuLV) Reverse Transcriptase (0.25 U/μl) was conducted at 48° C. for 30 min. […] The cycle threshold value (CT), indicative of the quantity of target gene at which the fluorescence exceeds a pre-set threshold, was determined and compared to the CT of a standard curve containing known amounts of mRNA (1.1×10^2 to 1.1×10^9) from the BLAZ gene of S. aureus obtained by in vitro transcription. […]

CC1(C)S[C@@H]2[C@H](NC(=O)Cc3ccccc3)C(=O)N2[C@H]1C(=O)O [penicillin G, Penicillin G]
BlaZ total: total number of copies of BlaZ gene mRNA/ml of culture (LF 1 mg/ml and/or penicillin G): 174.9 × 10^5 copies/ml of culture
BlaZ: number of copies of BlaZ gene mRNA/50 ng of mRNA (LF 1 mg/ml and/or penicillin G): 22.9 × 10^4 copies/50 ng of mRNA
RNA (adjusted for an OD540nm of 1.0, LF 1 mg/ml and/or penicillin G): 3.22 ± 0.49 :g/ml
increase in the number of copies of the BlaZ mRNA per ml of culture (penicillin G added to the growth medium, P<0.01): 28 fold

Source: patent US20030134779A1, “Method and composition for treatment and/or prevention of antibiotic-resistant microorganism infections” (priority 2002, published 2003)
